Test: Safety: treatment-emergent adverse events (NCI CTCAE v5.0; CRS per ASTCT), phase I/II study NCT03648372
Type: in vivo
Protocol: This study comprised two parts: a phase I dose escalation and a phase II dose expansion (Fig. 1). In the dose-escalation phase, patients were enrolled to receive subasumstat intravenously as a 1-hour (±10 minutes) infusion on days 1, 4, 8, and 11 of a 21-day cycle (biweekly schedule). […] Dose escalation was based on cohort with an adaptive design using Bayesian logistic regression modeling with overdose control. The starting dose of subasumstat was based on Good Laboratory Practice animal toxicity studies and supported by the estimation of a minimum anticipated biologically effective level. A detailed description of dose-limiting toxicities (DLT) is presented in the Supplementary Methods.
The phase II dose-expansion portion enrolled patients to receive the recommended phase II dose (RP2D) determined in phase I, with each cohort assessed separately using an adaptive two-stage design for a single proportion (see Supplementary Methods). For stage 1, each cohort was analyzed when a prespecified number of patients were enrolled and had the potential to have at least one posttreatment scan [i.e., after the first disease assessment, 2 months from cycle 1 day 1 (C1D1)]. If the prespecified minimal response rate was not achieved in the first stage for a given cohort, that cohort would be closed to enrollment. […] The final analysis of the primary endpoints for each cohort would take place when all ongoing patients had the opportunity to complete the 6-month disease assessment. Across both phases, patients received subasumstat for up to 1 year or until confirmed disease progression, unacceptable toxicity, if any withdrawal criterion from the study was met, or if discontinuation of subasumstat occurred.
The occurrence of DLTs was assessed during cycle 1 (DLTs are described in the Supplementary Methods). Treatment-emergent adverse events (TEAE) were graded according to NCI Common Terminology Criteria for Adverse Events version 5.0, except for cytokine release syndrome (CRS), which was graded according to the American Society for Transplantation and Cellular Therapy Consensus Grading for CRS ([20]).
It was anticipated that approximately 70 DLT-evaluable patients would be enrolled for dose escalation. The safety analysis set included all patients who received at least one dose, even if incomplete, of subasumstat. […] The overall response rate (ORR) was defined as the proportion of patients who achieved complete response and partial response (PR) during the study. The disease control rate (DCR) was defined as the proportion of patients who achieved […] as per RECIST v1.1 for solid tumors or Lugano classification for lymphomas. […] Progression-free survival was summarized descriptively using the Kaplan–Meier method.

## Cc1sc(C(=O)c2cncnc2N[C@@H]2C[C@H](COS(N)(=O)=O)[C@@H](O)C2)cc1[C@@H]1NCCc2ccc(Cl)cc21 [subasumstat]
Phase I (n = 84)
  AESI (adverse event of special interest): 9 (10.7) n (%)
  AESI related to subasumstat: 9 (10.7) n (%)
  AESI: CRS: 9 (10.7) n (%)
  Grade ≥3 TEAE: Abdominal pain: 4 (4.8) n (%)
  Grade ≥3 TEAE: Acute kidney injury: 2 (2.4) n (%)
  Grade ≥3 TEAE: Anemia: 9 (10.7) n (%)
  Grade ≥3 TEAE: Aspartate aminotransferase increased: 2 (2.4) n (%)
  Grade ≥3 TEAE: Blood bilirubin increased: 2 (2.4) n (%)
  Grade ≥3 TEAE: Dyspnea: 4 (4.8) n (%)
  Grade ≥3 TEAE: Fatigue: 5 (6.0) n (%)
  Grade ≥3 TEAE: Hyperbilirubinemia: 0 n (%)
  Grade ≥3 TEAE: Hypertension: 1 (1.2) n (%)
  Grade ≥3 TEAE: Hypokalemia: 7 (8.3) n (%)
  Grade ≥3 TEAE: Hypomagnesemia: 2 (2.4) n (%)
  Grade ≥3 TEAE: Hypophosphatemia: 2 (2.4) n (%)
  Grade ≥3 TEAE: Lymphocyte count decreased: 5 (6.0) n (%)
  Grade ≥3 TEAE: Lymphopenia: 1 (1.2) n (%)
  Grade ≥3 TEAE: Muscular weakness: 0 n (%)
  Grade ≥3 TEAE: Nausea: 2 (2.4) n (%)
  Grade ≥3 TEAE: Neutropenia: 0 n (%)
  Grade ≥3 TEAE: Platelet count increased: 1 (1.2) n (%)
  Grade ≥3 TEAE: Pleural effusion: 2 (2.4) n (%)
  Grade ≥3 TEAE: Pneumonia: 1 (1.2) n (%)
  Grade ≥3 TEAE: Pneumonitis: 2 (2.4) n (%)
  Grade ≥3 TEAE: Pyrexia: 2 (2.4) n (%)
  Grade ≥3 TEAE: Small intestinal obstruction: 4 (4.8) n (%)
  Grade ≥3 TEAE: Thrombocytopenia: 1 (1.2) n (%)
  Grade ≥3 TEAE: Vomiting: 4 (4.8) n (%)
  Grade ≥3 TEAEs: 48 (57.1) n (%)
  Grade ≥3 TEAEs related to subasumstat: 18 (21.4) n (%)
  Grade ≥3 subasumstat-related TEAE: Anemia: 1 (1.2) n (%)
  Grade ≥3 subasumstat-related TEAE: Aspartate aminotransferase increased: 2 (2.4) n (%)
  Grade ≥3 subasumstat-related TEAE: Hypokalemia: 2 (2.4) n (%)
  Grade ≥3 subasumstat-related TEAE: Lymphocyte count decreased: 4 (4.8) n (%)
  Grade ≥3 subasumstat-related TEAE: Muscular weakness: 0 n (%)
  Grade ≥3 subasumstat-related TEAE: Neutropenia: 0 n (%)
  Grade ≥3 subasumstat-related TEAE: Platelet count increased: 1 (1.2) n (%)
  Grade ≥3 subasumstat-related TEAE: Pneumonitis: 2 (2.4) n (%)
  Grade ≥3 subasumstat-related TEAE: Thrombocytopenia: 1 (1.2) n (%)
  On-study deaths: 10 (11.9) n (%)
  Patients with at least one grade ≥3 TEAE: 48 (57.1) n (%)
  Patients with at least one grade ≥3 subasumstat-related TEAE: 18 (21.4) n (%)
  Serious adverse events: 37 (44.0) n (%)
  Serious adverse events related to subasumstat: 7 (8.3) n (%)
  Subasumstat-related TEAE: Anemia: 4 (4.8) n (%)
  Subasumstat-related TEAE: CRS: 9 (10.7) n (%)
  Subasumstat-related TEAE: Chills: 17 (20.2) n (%)
  Subasumstat-related TEAE: Decreased appetite: 10 (11.9) n (%)
  Subasumstat-related TEAE: Diarrhea: 15 (17.9) n (%)
  Subasumstat-related TEAE: Dyspnea: 4 (4.8) n (%)
  Subasumstat-related TEAE: Fatigue: 27 (32.1) n (%)
  Subasumstat-related TEAE: Headache: 21 (25.0) n (%)
  Subasumstat-related TEAE: Hypokalemia: 7 (8.3) n (%)
  Subasumstat-related TEAE: IRR: 5 (6.0) n (%)
  Subasumstat-related TEAE: Myalgia: 6 (7.1) n (%)
  Subasumstat-related TEAE: Nausea: 29 (34.5) n (%)
  Subasumstat-related TEAE: Pyrexia: 23 (27.4) n (%)
  Subasumstat-related TEAE: Vomiting: 13 (15.5) n (%)
  TEAE: Abdominal distension: 11 (13.1) n (%)
  TEAE: Abdominal pain: 17 (20.2) n (%)
  TEAE: Anemia: 12 (14.3) n (%)
  TEAE: Arthralgia: 12 (14.3) n (%)
  TEAE: Back pain: 12 (14.3) n (%)
  TEAE: CRS: 9 (10.7) n (%)
  TEAE: Chills: 20 (23.8) n (%)
  TEAE: Constipation: 14 (16.7) n (%)
  TEAE: Decreased appetite: 26 (31.0) n (%)
  TEAE: Dehydration: 10 (11.9) n (%)
  TEAE: Diarrhea: 29 (34.5) n (%)
  TEAE: Dyspnea: 22 (26.2) n (%)
  TEAE: Fatigue: 42 (50.0) n (%)
  TEAE: Headache: 30 (35.7) n (%)
  TEAE: Hypophosphatemia: 11 (13.1) n (%)
  TEAE: Insomnia: 11 (13.1) n (%)
  TEAE: Nausea: 41 (48.8) n (%)
  TEAE: Peripheral edema: 15 (17.9) n (%)
  TEAE: Pleural effusion: 9 (10.7) n (%)
  TEAE: Pyrexia: 28 (33.3) n (%)
  TEAE: Stomatitis: 8 (9.5) n (%)
  TEAE: Vomiting: 27 (32.1) n (%)
  TEAEs: 81 (96.4) n (%)
  TEAEs leading to discontinuation: 8 (9.5) n (%)
  TEAEs leading to discontinuation related to subasumstat: 3 (3.6) n (%)
  TEAEs related to subasumstat: 65 (77.4) n (%)
Phase II (n = 25)
  AESI (adverse event of special interest): 3 (12.0) n (%)
  AESI related to subasumstat: 3 (12.0) n (%)
  AESI: CRS: 3 (12.0) n (%)
  Grade ≥3 TEAE: Abdominal pain: 2 (8.0) n (%)
  Grade ≥3 TEAE: Acute kidney injury: 2 (8.0) n (%)
  Grade ≥3 TEAE: Anemia: 5 (20.0) n (%)
  Grade ≥3 TEAE: Aspartate aminotransferase increased: 0 n (%)
  Grade ≥3 TEAE: Blood bilirubin increased: 0 n (%)
  Grade ≥3 TEAE: Dyspnea: 0 n (%)
  Grade ≥3 TEAE: Fatigue: 0 n (%)
  Grade ≥3 TEAE: Hyperbilirubinemia: 2 (8.0) n (%)
  Grade ≥3 TEAE: Hypertension: 1 (4.0) n (%)
  Grade ≥3 TEAE: Hypokalemia: 0 n (%)
  Grade ≥3 TEAE: Hypomagnesemia: 0 n (%)
  Grade ≥3 TEAE: Hypophosphatemia: 0 n (%)
  Grade ≥3 TEAE: Lymphocyte count decreased: 0 n (%)
  Grade ≥3 TEAE: Lymphopenia: 1 (4.0) n (%)
  Grade ≥3 TEAE: Muscular weakness: 2 (8.0) n (%)
  Grade ≥3 TEAE: Nausea: 0 n (%)
  Grade ≥3 TEAE: Neutropenia: 4 (16.0) n (%)
  Grade ≥3 TEAE: Platelet count increased: 2 (8.0) n (%)
  Grade ≥3 TEAE: Pleural effusion: 0 n (%)
  Grade ≥3 TEAE: Pneumonia: 1 (4.0) n (%)
  Grade ≥3 TEAE: Pneumonitis: 0 n (%)
  Grade ≥3 TEAE: Pyrexia: 0 n (%)
  Grade ≥3 TEAE: Small intestinal obstruction: 0 n (%)
  Grade ≥3 TEAE: Thrombocytopenia: 1 (4.0) n (%)
  Grade ≥3 TEAE: Vomiting: 0 n (%)
  Grade ≥3 TEAEs: 18 (72.0) n (%)
  Grade ≥3 TEAEs related to subasumstat: 11 (44.0) n (%)
  Grade ≥3 subasumstat-related TEAE: Anemia: 3 (12.0) n (%)
  Grade ≥3 subasumstat-related TEAE: Aspartate aminotransferase increased: 0 n (%)
  Grade ≥3 subasumstat-related TEAE: Hypokalemia: 0 n (%)
  Grade ≥3 subasumstat-related TEAE: Lymphocyte count decreased: 0 n (%)
  Grade ≥3 subasumstat-related TEAE: Muscular weakness: 2 (8.0) n (%)
  Grade ≥3 subasumstat-related TEAE: Neutropenia: 4 (16.0) n (%)
  Grade ≥3 subasumstat-related TEAE: Platelet count increased: 2 (8.0) n (%)
  Grade ≥3 subasumstat-related TEAE: Pneumonitis: 0 n (%)
  Grade ≥3 subasumstat-related TEAE: Thrombocytopenia: 1 (4.0) n (%)
  On-study deaths: 2 (8.0) n (%)
  Patients with at least one grade ≥3 TEAE: 18 (72.0) n (%)
  Patients with at least one grade ≥3 subasumstat-related TEAE: 11 (44.0) n (%)
  Serious adverse events: 11 (44.0) n (%)
  Serious adverse events related to subasumstat: 5 (20.0) n (%)
  Subasumstat-related TEAE: Anemia: 4 (16.0) n (%)
  Subasumstat-related TEAE: CRS: 3 (12.0) n (%)
  Subasumstat-related TEAE: Chills: 6 (24.0) n (%)
  Subasumstat-related TEAE: Decreased appetite: 3 (12.0) n (%)
  Subasumstat-related TEAE: Diarrhea: 6 (24.0) n (%)
  Subasumstat-related TEAE: Dyspnea: 2 (8.0) n (%)
  Subasumstat-related TEAE: Fatigue: 7 (28.0) n (%)
  Subasumstat-related TEAE: Headache: 5 (20.0) n (%)
  Subasumstat-related TEAE: Hypokalemia: 0 n (%)
  Subasumstat-related TEAE: IRR: 1 (4.0) n (%)
  Subasumstat-related TEAE: Myalgia: 2 (8.0) n (%)
